Test results as given in ChEMBL document CHEMBL1201862, “PubChem BioAssay data set” (2004).
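Each compound was tested at five concentrations against cells in 96-well plates for 48 hours. Here, GI50 denotes the concentration required for 50% inhibition of growth.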 The source made the active and inactive calls. Rule as the data show it: active = GI50 up to about 1.1 µM and inactive = higher.

What was measured:
Assay in all cases: NCI-60 cell line screen, 48 h
[1] = test system: 786-0
[2] = test system: A498
[3] = test system: A549
[4] = test system: ACHN
[5] = test system: BT-549
[6] = test system: CAKI-1
[7] = test system: CCRF-CEM
[8] = test system: COLO 205
[9] = test system: DU-145
[10] = test system: EKVX
[11] = test system: HCT-116
[12] = test system: HCT-15
[13] = test system: HL-60
[14] = test system: HOP-62
[15] = test system: HOP-92
[16] = test system: HT-29
[17] = test system: Hs-578T
[18] = test system: IGROV-1
[19] = test system: K562
[20] = test system: KM12
[21] = test system: LOX IMVI
[22] = test system: M14
[23] = test system: MCF7
[24] = test system: MDA-MB-231
[25] = test system: MDA-MB-435
[26] = test system: MDA-N
[27] = test system: MOLT-4
[28] = test system: Malme-3M
[29] = test system: NCI-H226
[30] = test system: NCI-H23
[31] = test system: NCI-H460
[32] = test system: NCI-H522
[33] = test system: NCI/ADR-RES
[34] = test system: OVCAR-3
[35] = test system: OVCAR-4
[36] = test system: OVCAR-5
[37] = test system: OVCAR-8
[38] = test system: PC-3
[39] = test system: RPMI-8226
[40] = test system: RXF 393
[41] = test system: SF-268
[42] = test system: SF-295
[43] = test system: SF-539
[44] = test system: SK-MEL-28
[45] = test system: SK-MEL-2
[46] = test system: SK-MEL-5
[47] = test system: SK-OV-3
[48] = test system: SN12C
[49] = test system: SNB-19
[50] = test system: SNB-75
[51] = test system: SR
[52] = test system: SW-620
[53] = test system: T47D
[54] = test system: TK-10
[55] = test system: U-251
[56] = test system: UACC-257
[57] = test system: UACC-62
[58] = test system: UO-31

O=C(O)CN(CC(=O)O)c1ccccc1
GI50 [1]: > 100 µM (inactive)
GI50 [2]: > 100 µM (inactive)
GI50 [3]: > 100 µM (inactive)
GI50 [4]: > 100 µM (inactive)
GI50 [5]: > 100 µM (inactive)
GI50 [6]: > 100 µM (inactive)
GI50 [7]: 34 µM (inactive)
GI50 [8]: > 100 µM (inactive)
GI50 [9]: > 100 µM (inactive)
GI50 [10]: > 100 µM (inactive)
GI50 [11]: 56.5 µM (inactive)
GI50 [12]: > 100 µM
GI50 [13]: 44.5 µM (inactive)
GI50 [14]: > 100 µM (inactive)
GI50 [15]: 48.9 µM (inactive)
GI50 [16]: 59.4 µM (inactive)
GI50 [17]: 80 µM (inactive)
GI50 [18]: > 100 µM (inactive)
GI50 [19]: 35 µM (inactive)
GI50 [20]: 60.1 µM (inactive)
GI50 [21]: > 100 µM (inactive)
GI50 [22]: > 100 µM (inactive)
GI50 [23]: > 100 µM (inactive)
GI50 [24]: 92.3 µM (inactive)
GI50 [25]: 70.6 µM (inactive)
GI50 [26]: 97.5 µM (inactive)
GI50 [27]: > 100 µM (inactive)
GI50 [28]: 45.8 µM (inactive)
GI50 [29]: > 100 µM (inactive)
GI50 [30]: 75.3 µM (inactive)
GI50 [31]: 71.1 µM (inactive)
GI50 [32]: 26.9 µM (inactive)
GI50 [33]: > 100 µM (inactive)
GI50 [34]: 75.2 µM (inactive)
GI50 [35]: 81.7 µM (inactive)
GI50 [36]: > 100 µM (inactive)
GI50 [37]: > 100 µM (inactive)
GI50 [38]: 56 µM (inactive)
GI50 [39]: 35.6 µM (inactive)
GI50 [40]: > 100 µM (inactive)
GI50 [41]: > 100 µM (inactive)
GI50 [42]: > 100 µM (inactive)
GI50 [43]: > 100 µM (inactive)
GI50 [44]: > 100 µM (inactive)
GI50 [45]: 33.2 µM (inactive)
GI50 [46]: 84.5 µM (inactive)
GI50 [47]: > 100 µM (inactive)
GI50 [48]: > 100 µM (inactive)
GI50 [49]: > 100 µM (inactive)
GI50 [50]: > 100 µM (inactive)
GI50 [51]: > 100 µM (inactive)
GI50 [52]: > 100 µM (inactive)
GI50 [53]: 37.3 µM (inactive)
GI50 [54]: > 100 µM (inactive)
GI50 [55]: 74.5 µM (inactive)
GI50 [56]: 18.2 µM (inactive)
GI50 [57]: 32 µM (inactive)
GI50 [58]: > 100 µM (inactive)

Nc1ccccc1.O=C(O)C(C(F)(F)F)C(F)(F)F
GI50 [1]: > 100 µM (inactive)
GI50 [2]: > 100 µM (inactive)
GI50 [3]: > 100 µM (inactive)
GI50 [4]: > 100 µM (inactive)
GI50 [5]: > 100 µM (inactive)
GI50 [6]: 34 µM (inactive)
GI50 [7]: > 100 µM (inactive)
GI50 [8]: > 100 µM (inactive)
GI50 [9]: 99.5 µM (inactive)
GI50 [10]: > 100 µM (inactive)
GI50 [11]: > 100 µM (inactive)
GI50 [12]: 14.9 µM
GI50 [13]: > 100 µM (inactive)
GI50 [14]: > 100 µM (inactive)
GI50 [15]: > 100 µM (inactive)
GI50 [16]: > 100 µM (inactive)
GI50 [17]: > 100 µM (inactive)
GI50 [18]: > 100 µM (inactive)
GI50 [19]: > 100 µM (inactive)
GI50 [20]: 71.8 µM (inactive)
GI50 [21]: > 100 µM (inactive)
GI50 [22]: > 100 µM (inactive)
GI50 [23]: > 100 µM (inactive)
GI50 [24]: > 100 µM (inactive)
GI50 [25]: > 100 µM (inactive)
GI50 [26]: > 100 µM (inactive)
GI50 [27]: > 100 µM (inactive)
GI50 [28]: > 100 µM (inactive)
GI50 [29]: > 100 µM (inactive)
GI50 [30]: > 100 µM (inactive)
GI50 [31]: > 100 µM (inactive)
GI50 [32]: > 100 µM (inactive)
GI50 [33]: > 100 µM (inactive)
GI50 [34]: > 100 µM (inactive)
GI50 [35]: > 100 µM (inactive)
GI50 [36]: > 100 µM (inactive)
GI50 [37]: > 100 µM (inactive)
GI50 [38]: > 100 µM (inactive)
GI50 [39]: > 100 µM (inactive)
GI50 [40]: > 100 µM (inactive)
GI50 [41]: > 100 µM (inactive)
GI50 [42]: > 100 µM (inactive)
GI50 [43]: > 100 µM (inactive)
GI50 [44]: > 100 µM (inactive)
GI50 [45]: > 100 µM (inactive)
GI50 [46]: > 100 µM (inactive)
GI50 [47]: > 100 µM (inactive)
GI50 [48]: > 100 µM (inactive)
GI50 [49]: > 100 µM (inactive)
GI50 [50]: > 100 µM (inactive)
GI50 [51]: > 100 µM (inactive)
GI50 [52]: > 100 µM (inactive)
GI50 [53]: > 100 µM (inactive)
GI50 [54]: > 100 µM (inactive)
GI50 [55]: > 100 µM (inactive)
GI50 [56]: > 100 µM (inactive)
GI50 [57]: 68.5 µM (inactive)
GI50 [58]: > 100 µM (inactive)
